Measured values as given in patent publication US8178577B2, “Tricyclic derivatives as potent and selective histone deacetylase inhibitors” (Shenzhen Chipscreen Biosciences Ltd., priority 2008, dated 2012).

Key:
[1] = test system: total HDAC enzyme; experiment: In vitro inhibition of total HDAC enzyme activity (BIOMOL HDAC Fluorimetric Assay/Drug Discovery Kit, HeLa extract); type: biochemical
Experimental: Measurement of In Vitro Inhibition of Total HDAC Enzyme Activity:
The in vitro inhibition of total HDAC enzyme was determined by HDAC Fluorimetric Assay/Drug Discovery Kit (BIOMOL) according to manufacture's instruction. • 1. Add Assay buffer, diluted trichostatin A or test inhibitor to appropriate wells of the microtiter plate. Following table lists examples of various assay types and the additions required for each test.
• 2. Add diluted HeLa extract or other HDAC sample to all wells except those that are to be “No Enzyme Controls” (Blank). • 3. Allow diluted Fluor de LYS™ Substrate and the samples in the microtiter plate to equilibrate to assay temperature (25° C.). • 4. Initiate HDAC reactions by adding diluted substrate (25 μl) to each well and mixing thoroughly. • 5. Allow HDAC reactions to proceed for desired length of time and then stop them by addition of Fluor de Lys™ Developer (50 μl). Incubate plate at room temperature (25° C.) for 10-15 min. • 6. Read samples in a microtiter-plate reading fluorimeter capable of excitation at a wavelength in the range 350-380 nm and detection of emitted light in the range 440-460 nm. Measurement of In Vivo Inhibition of HDAC Subtype Activity: […]

[2] = test system: HDAC Class I; experiment: P21 reporter gene assay in HeLa cells; type: cell-based; conditions: relative to SAHA, 24 hours
Experimental: (§1) HDAC subtype selectivity inhibition assay of tested compounds was carried out by several reporter gene assays experiments. Briefly, HeLa cells were seeded in 96-well plates the day before transfection to give a confluence of 50-80%. Cells were transfected with one of reporter gene plasmids containing a promoter sequences or response elements upstream of a luciferase gene construct using FuGene6 transfection reagent according to the manufacturer's instructions (Roche). The promoter or response elements including p21-promoter, gdf11-promoter, serum response element (SRE), MEF-binding element were fused upstream to the luciferase gene reporter construct. For normalizing the transfection efficiency, a GFP expression plasmid was cotransfected. Cells were allowed to express protein for 24 hours followed by addition of individual compounds or the vehicle (DMSO). 24 hours later the cells were harvested, and the luciferase assays were performed using the luciferase assay kit according to the manufacturer's instructions (Promega). To normalize the data from the luciferase assays, β-galactosidase activity from transfected cells was measured using a kit (Promega) as instructed by the manufacturer.

[3] = target: T1, HDAC3 (Homo sapiens, UniProt O15379); experiment: gdf11 reporter gene assay in HeLa cells; type: cell-based; conditions: HeLa, 24 h, read-out: % of SAHA Response for HDAC3 at 10 μM (gdf11 reporter gene)
T1 construct: endogenous in cells; host or cells: HeLa
T1 sequence (O15379 whole entry): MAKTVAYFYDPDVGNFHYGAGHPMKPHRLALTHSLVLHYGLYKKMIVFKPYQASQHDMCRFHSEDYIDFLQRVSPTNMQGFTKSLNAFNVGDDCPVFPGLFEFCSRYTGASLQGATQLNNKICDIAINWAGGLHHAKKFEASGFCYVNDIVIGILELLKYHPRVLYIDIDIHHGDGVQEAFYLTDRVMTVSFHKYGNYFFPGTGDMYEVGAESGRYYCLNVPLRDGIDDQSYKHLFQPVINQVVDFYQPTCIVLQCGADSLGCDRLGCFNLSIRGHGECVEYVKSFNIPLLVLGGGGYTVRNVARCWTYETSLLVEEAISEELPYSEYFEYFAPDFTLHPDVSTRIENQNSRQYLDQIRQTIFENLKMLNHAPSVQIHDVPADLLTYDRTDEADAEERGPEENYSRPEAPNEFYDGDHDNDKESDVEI
T1 sequence (Q9Y618 whole entry partner): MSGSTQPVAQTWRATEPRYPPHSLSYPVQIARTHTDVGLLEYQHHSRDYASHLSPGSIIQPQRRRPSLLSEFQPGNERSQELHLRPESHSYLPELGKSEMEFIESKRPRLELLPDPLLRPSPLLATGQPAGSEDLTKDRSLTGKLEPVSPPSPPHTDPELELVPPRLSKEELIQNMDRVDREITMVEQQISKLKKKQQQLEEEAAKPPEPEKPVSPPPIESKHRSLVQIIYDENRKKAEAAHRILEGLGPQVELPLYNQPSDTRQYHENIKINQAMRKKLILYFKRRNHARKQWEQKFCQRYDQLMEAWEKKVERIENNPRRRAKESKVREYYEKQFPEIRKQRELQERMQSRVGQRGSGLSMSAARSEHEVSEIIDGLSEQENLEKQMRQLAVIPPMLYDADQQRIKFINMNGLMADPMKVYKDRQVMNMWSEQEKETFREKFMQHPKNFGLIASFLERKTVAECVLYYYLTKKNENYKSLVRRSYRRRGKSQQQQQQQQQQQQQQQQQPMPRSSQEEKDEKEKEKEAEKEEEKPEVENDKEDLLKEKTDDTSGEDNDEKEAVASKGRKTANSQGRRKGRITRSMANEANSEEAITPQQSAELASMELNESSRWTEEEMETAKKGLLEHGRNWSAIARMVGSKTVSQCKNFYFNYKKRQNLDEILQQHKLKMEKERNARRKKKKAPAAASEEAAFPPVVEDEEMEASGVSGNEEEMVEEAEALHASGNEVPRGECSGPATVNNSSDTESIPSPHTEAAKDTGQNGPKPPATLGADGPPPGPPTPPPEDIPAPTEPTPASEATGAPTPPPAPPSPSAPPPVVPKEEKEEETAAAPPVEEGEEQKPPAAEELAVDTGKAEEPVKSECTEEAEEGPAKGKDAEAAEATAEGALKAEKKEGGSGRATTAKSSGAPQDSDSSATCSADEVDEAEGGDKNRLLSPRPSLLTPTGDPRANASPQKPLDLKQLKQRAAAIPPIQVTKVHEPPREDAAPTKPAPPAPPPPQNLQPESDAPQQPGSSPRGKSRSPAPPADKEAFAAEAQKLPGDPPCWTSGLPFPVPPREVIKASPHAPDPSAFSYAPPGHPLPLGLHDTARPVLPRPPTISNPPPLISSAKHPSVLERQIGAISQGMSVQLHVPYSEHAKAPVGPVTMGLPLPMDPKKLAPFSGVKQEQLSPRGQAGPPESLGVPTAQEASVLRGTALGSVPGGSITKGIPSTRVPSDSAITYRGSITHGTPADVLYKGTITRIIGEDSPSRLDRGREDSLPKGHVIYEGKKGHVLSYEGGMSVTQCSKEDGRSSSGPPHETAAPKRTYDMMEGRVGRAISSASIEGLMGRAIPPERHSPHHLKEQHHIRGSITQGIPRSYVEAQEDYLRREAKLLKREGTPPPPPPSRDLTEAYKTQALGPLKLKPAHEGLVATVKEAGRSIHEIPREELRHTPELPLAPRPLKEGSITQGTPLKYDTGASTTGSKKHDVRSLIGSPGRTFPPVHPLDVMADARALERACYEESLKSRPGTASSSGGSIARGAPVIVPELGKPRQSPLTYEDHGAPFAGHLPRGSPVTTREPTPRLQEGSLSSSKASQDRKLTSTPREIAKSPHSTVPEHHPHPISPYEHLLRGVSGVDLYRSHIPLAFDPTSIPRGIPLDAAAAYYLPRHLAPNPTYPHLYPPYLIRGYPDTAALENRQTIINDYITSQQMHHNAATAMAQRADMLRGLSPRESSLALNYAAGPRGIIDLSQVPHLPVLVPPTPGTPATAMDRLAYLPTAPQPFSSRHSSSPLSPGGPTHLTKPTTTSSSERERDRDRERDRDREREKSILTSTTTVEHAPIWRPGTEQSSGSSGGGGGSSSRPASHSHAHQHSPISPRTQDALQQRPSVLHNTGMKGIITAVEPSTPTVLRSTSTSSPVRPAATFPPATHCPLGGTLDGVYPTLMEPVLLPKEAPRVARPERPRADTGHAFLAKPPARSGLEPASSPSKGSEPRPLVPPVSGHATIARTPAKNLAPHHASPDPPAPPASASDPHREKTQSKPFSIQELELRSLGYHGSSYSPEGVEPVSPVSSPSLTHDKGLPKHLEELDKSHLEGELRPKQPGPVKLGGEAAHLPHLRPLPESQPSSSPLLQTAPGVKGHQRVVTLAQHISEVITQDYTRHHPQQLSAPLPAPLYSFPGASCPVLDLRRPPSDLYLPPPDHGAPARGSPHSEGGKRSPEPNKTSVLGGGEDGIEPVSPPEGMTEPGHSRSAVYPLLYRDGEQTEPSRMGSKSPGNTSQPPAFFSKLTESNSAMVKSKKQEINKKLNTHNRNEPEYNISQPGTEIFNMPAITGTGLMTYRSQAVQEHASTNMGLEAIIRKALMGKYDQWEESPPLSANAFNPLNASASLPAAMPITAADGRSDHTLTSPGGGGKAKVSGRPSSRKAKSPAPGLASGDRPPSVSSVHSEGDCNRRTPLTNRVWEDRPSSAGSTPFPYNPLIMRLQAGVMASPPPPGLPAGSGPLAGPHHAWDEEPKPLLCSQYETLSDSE
Experimental: as §1

[4] = test system: HL60; experiment: Cell proliferation (MTS), HL60; type: cell-based; conditions: Homo sapiens, HL-60, 72 hours
Experimental: (§2) Measurement of In Vivo Cell Proliferation:
(§3) Tumor cells were trypsinized and plated into 96-well plates at 3,000 per well and incubated in complete medium with 10% FBS for 24 hours. Compounds were added over a final concentration range of 100 μmol/L to 100 nmol/L in 0.1% DMSO and incubated for 72 hours in complete medium. The effects on proliferation were determined by addition of MTS reagent (Promega) according to the instruction, incubation for 2 hours at 37° C. in CO2 incubator, and record the absorbance at 490 nm using an ELISA plate reader.

[5] = test system: HeLa; experiment: Cell proliferation (MTS), HeLa; type: cell-based; conditions: Homo sapiens, 72 hours
Experimental: as §2, §3

Row | Compound | % of Inhibition on total HDAC enzyme at 30 μM [1] [%] | % of SAHA Response for HDAC Class I at 10 μM (P21 reporter gene) [2] [%] | activation at 10 µM [3] [%] | GI50 [4] [µM] | GI50 [5] [µM]
1 | Nc1cc(F)ccc1NC(=O)CCCCCNC(=O)C=C1c2ccccc2-c2ccccc21 [Example 12, 6-(2-(9H-fluoren-9-ylidene)acetamido)-N-(2-amino-4-fluorophenyl)hexanamide] | 50 | 39 | 26 | 2.29 | 22.9
2 | Nc1ccccc1NC(=O)CCCCCNC(=O)C=C1c2ccccc2-c2ccccc21 [Example 13, 6-(2-(9H-fluoren-9-ylidene)acetamido)-N-(2-aminophenyl)hexanamide] | 50 | 133 | 66 | 1.35 | 8.32
